Measurements reported in patent US20090036448A1, “PYRIMIDINE DERIVATIVES AND METHODS OF TREATMENT RELATED TO THE USE THEREOF” (TAISHO PHARMECUTICAL CO., LTD., priority 2004, published 2009).

Biological target: MCH receptor (Homo sapiens, UniProt Q99705)
Experiment: Receptor binding assay with Radiolabelled MCH Ligand
Parameters: expressed in transfected cells; host or cells: 293 cells (human kidney, ATCC), transient transfection; crude membranes
Settings: class by percent of control at 10^-7 M or IC50
Outline: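 Membranes from 293 cells transiently transfected with human MCH receptor competed test compounds against a radiolabelled MCH ligand in Tris-HCl pH 7.4 with MgCl2 and EDTA for 60–120 min at room temperature. Filtration and scintillation counting followed, with cold MCH defining nonspecific binding. IC50 came from logit-log plots of %B/B0, and Ki from the Cheng-Prusoff equation.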

MCH receptor, sequence (Q99705 whole entry): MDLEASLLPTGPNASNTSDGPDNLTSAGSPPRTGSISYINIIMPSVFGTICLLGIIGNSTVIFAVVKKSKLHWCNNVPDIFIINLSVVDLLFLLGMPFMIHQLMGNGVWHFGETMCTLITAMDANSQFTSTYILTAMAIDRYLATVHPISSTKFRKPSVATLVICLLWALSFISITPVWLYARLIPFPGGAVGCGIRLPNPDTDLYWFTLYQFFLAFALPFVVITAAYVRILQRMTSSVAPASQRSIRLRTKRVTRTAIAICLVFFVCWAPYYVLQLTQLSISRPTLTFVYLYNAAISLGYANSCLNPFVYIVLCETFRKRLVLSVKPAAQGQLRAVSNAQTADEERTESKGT

Q: `Cc1nc(N[C@H]2CC[C@@H](NC(=O)C3(c4ccc(Cl)cc4)CCCC3)CC2)cc(N(C)C)n1` [compound 214] was tested. Which class did it give?
A: 1 (Class 1: The value of percent of control at 10^−7 M was less than 40% or the value of IC50 was less than 50 nM.)

Q: Which class does the source give for `Cc1nc(N[C@H]2CC[C@@H](NCCOc3ccc(Cl)cc3)CC2)cc(N(C)C)n1` [compound 361] here?
A: 3 (Class 3: The value of percent of control at 10^−7 M was more than 60% or the value of IC50 was more than 200 nM.)

Q: For `C=Cc1ccc(S(=O)(=O)N[C@H]2CC[C@@H](Nc3cc(N(C)C)nc(C)n3)CC2)cc1` [compound 482], which class is on record?
A: 3 (Class 3: The value of percent of control at 10^−7 M was more than 60% or the value of IC50 was more than 200 nM.)

Q: Which class does the source give for `Cc1nc(N[C@H]2CC[C@@H](NC(=O)Cc3c[nH]c4ccc(OCc5ccccc5)cc34)CC2)cc(N(C)C)n1` [compound 318] here?
A: 3 (Class 3: The value of percent of control at 10^−7 M was more than 60% or the value of IC50 was more than 200 nM.)

Q: Which class does the source give for `Cc1nc(N[C@H]2CC[C@@H](NS(=O)(=O)c3cc(S(=O)(=O)c4ccccc4)cs3)CC2)cc(N(C)C)n1` [compound 519] here?
A: 3 (Class 3: The value of percent of control at 10^−7 M was more than 60% or the value of IC50 was more than 200 nM.)

Q: Which class does the source give for `Cc1nc(N[C@H]2CC[C@@H](NCc3ccc(-c4ccccc4)cc3)CC2)cc(N(C)C)n1` [compound 355] here?
A: 3 (Class 3: The value of percent of control at 10^−7 M was more than 60% or the value of IC50 was more than 200 nM.)

Q: For `Cc1nc(N[C@H]2CC[C@@H](NC(=O)Cc3ccccc3)CC2)cc(N(C)C)n1` [compound 235], which class is on record?
A: 3 (Class 3: The value of percent of control at 10^−7 M was more than 60% or the value of IC50 was more than 200 nM.)

Q: `Cc1nc(N[C@H]2CC[C@@H](NC(=O)COCc3ccccc3)CC2)cc(N(C)C)n1` [compound 206] was tested. Which class did it give?
A: 3 (Class 3: The value of percent of control at 10^−7 M was more than 60% or the value of IC50 was more than 200 nM.)

Q: For `Cc1nc(N[C@H]2CC[C@@H](NC(=O)NC(c3ccccc3)c3ccccc3)CC2)cc(N(C)C)n1` [compound 414], which class is on record?
A: 3 (Class 3: The value of percent of control at 10^−7 M was more than 60% or the value of IC50 was more than 200 nM.)

Q: Which class does the source give for `Cc1nc(N[C@H]2CC[C@@H](NC(=O)CCCc3ccc([N+](=O)[O-])cc3)CC2)cc(N(C)C)n1` [compound 298] here?
A: 3 (Class 3: The value of percent of control at 10^−7 M was more than 60% or the value of IC50 was more than 200 nM.)

Q: With `Cc1nc(N[C@H]2CC[C@@H](NCCSc3ccccc3)CC2)cc(N(C)C)n1` [compound 391] as the molecule, how does the class read?
A: 3 (Class 3: The value of percent of control at 10^−7 M was more than 60% or the value of IC50 was more than 200 nM.)

Q: How did the class turn out when `Cc1nc(N[C@H]2CC[C@@H](NC(=O)Oc3ccc4ccccc4c3)CC2)cc(N(C)C)n1` [compound 461] was run?
A: 3 (Class 3: The value of percent of control at 10^−7 M was more than 60% or the value of IC50 was more than 200 nM.)

Q: How did the class turn out when `Cc1nc(N[C@H]2CC[C@@H](NS(=O)(=O)c3ccc(Cc4ncc(C(F)(F)F)cc4Cl)s3)CC2)cc(N(C)C)n1` [compound 510] was run?
A: 3 (Class 3: The value of percent of control at 10^−7 M was more than 60% or the value of IC50 was more than 200 nM.)

Q: Which class does the source give for `Cc1nc(N[C@H]2CC[C@@H](NC(=O)Cc3ccc(F)cc3)CC2)cc(N(C)C)n1` [compound 250] here?
A: 3 (Class 3: The value of percent of control at 10^−7 M was more than 60% or the value of IC50 was more than 200 nM.)

Q: How did the class turn out when `Cc1nc(N[C@H]2CC[C@@H](NCCCc3ccccc3)CC2)cc(N(C)C)n1` [compound 403] was run?
A: 3 (Class 3: The value of percent of control at 10^−7 M was more than 60% or the value of IC50 was more than 200 nM.)

Q: How did the class turn out when `Cc1nc(N[C@H]2CC[C@@H](NCc3scc(S(=O)(=O)c4ccc(Cl)cc4)c3C)CC2)cc(N(C)C)n1` [compound 367] was run?
A: 3 (Class 3: The value of percent of control at 10^−7 M was more than 60% or the value of IC50 was more than 200 nM.)

Q: With `CC(=O)OC(C(=O)N[C@H]1CC[C@@H](Nc2cc(N(C)C)nc(C)n2)CC1)c1ccccc1` (relative stereo) [compound 197] as the molecule, how does the class read?
A: 3 (Class 3: The value of percent of control at 10^−7 M was more than 60% or the value of IC50 was more than 200 nM.)

Q: `CSc1ncccc1C(=O)N[C@H]1CC[C@@H](Nc2cc(N(C)C)nc(C)n2)CC1` [compound 226] was tested. Which class did it give?
A: 3 (Class 3: The value of percent of control at 10^−7 M was more than 60% or the value of IC50 was more than 200 nM.)

Q: For `Cc1nc(N[C@H]2CC[C@@H](NC(=O)Cc3ccccc3C(=O)Nc3ccc(F)cc3F)CC2)cc(N(C)C)n1` [compound 294], which class is on record?
A: 3 (Class 3: The value of percent of control at 10^−7 M was more than 60% or the value of IC50 was more than 200 nM.)

Q: With `Cc1ccc(S(=O)(=O)NCC(=O)N[C@H]2CC[C@@H](Nc3cc(N(C)C)nc(C)n3)CC2)cc1` [compound 317] as the molecule, how does the class read?
A: 3 (Class 3: The value of percent of control at 10^−7 M was more than 60% or the value of IC50 was more than 200 nM.)

Q: `Cc1nc(N[C@H]2CC[C@@H](NCC(C)(C)Oc3ccc(Cl)cc3)CC2)cc(N(C)C)n1` [compound 408] was tested. Which class did it give?
A: 3 (Class 3: The value of percent of control at 10^−7 M was more than 60% or the value of IC50 was more than 200 nM.)

Q: Which class does the source give for `CC(=O)c1ccc(S(=O)(=O)N[C@H]2CC[C@@H](Nc3cc(N(C)C)nc(C)n3)CC2)cc1` [compound 484] here?
A: 3 (Class 3: The value of percent of control at 10^−7 M was more than 60% or the value of IC50 was more than 200 nM.)

Q: With `Cc1nc(N[C@H]2CC[C@@H](NC[C@H](Cc3ccccc3)NS(=O)(=O)c3cccc4ccccc34)CC2)cc(N(C)C)n1` [compound 404] as the molecule, how does the class read?
A: 3 (Class 3: The value of percent of control at 10^−7 M was more than 60% or the value of IC50 was more than 200 nM.)

Q: With `Cc1nc(N[C@H]2CC[C@@H](NS(=O)(=O)c3ccc(S(C)(=O)=O)cc3)CC2)cc(N(C)C)n1` [compound 498] as the molecule, how does the class read?
A: 3 (Class 3: The value of percent of control at 10^−7 M was more than 60% or the value of IC50 was more than 200 nM.)

Q: For `Cc1nc(N[C@H]2CC[C@@H](NC(=O)c3ccc(N(C)C)cc3)CC2)cc(N(C)C)n1` [compound 217], which class is on record?
A: 3 (Class 3: The value of percent of control at 10^−7 M was more than 60% or the value of IC50 was more than 200 nM.)

Q: Which class does the source give for `CCOC(=O)c1c(S(=O)(=O)N[C@H]2CC[C@@H](Nc3cc(N(C)C)nc(C)n3)CC2)c(-c2ccccc2)n(-c2ccccc2)c1C` [compound 506] here?
A: 3 (Class 3: The value of percent of control at 10^−7 M was more than 60% or the value of IC50 was more than 200 nM.)

Q: With `Cc1nc(N[C@H]2CC[C@@H](NCc3ccc(N(C)C)cc3)CC2)cc(N(C)C)n1` [compound 368] as the molecule, how does the class read?
A: 3 (Class 3: The value of percent of control at 10^−7 M was more than 60% or the value of IC50 was more than 200 nM.)

Q: For `Cc1nc(N[C@H]2CC[C@@H](NC(=O)C=C3c4ccccc4-c4ccccc43)CC2)cc(N(C)C)n1` [compound 352], which class is on record?
A: 3 (Class 3: The value of percent of control at 10^−7 M was more than 60% or the value of IC50 was more than 200 nM.)

Q: Which class does the source give for `Cc1nc(N[C@H]2CC[C@@H](NC(=O)N3CCOCC3)CC2)cc(N(C)C)n1` [compound 225] here?
A: 3 (Class 3: The value of percent of control at 10^−7 M was more than 60% or the value of IC50 was more than 200 nM.)

Q: With `COCCOC(=O)N[C@H]1CC[C@@H](Nc2cc(N(C)C)nc(C)n2)CC1` [compound 457] as the molecule, how does the class read?
A: 3 (Class 3: The value of percent of control at 10^−7 M was more than 60% or the value of IC50 was more than 200 nM.)

Q: How did the class turn out when `Cc1nc(N[C@H]2CC[C@@H](NC(=O)Nc3ccc(Cl)cc3C)CC2)cc(N(C)C)n1` [compound 418, N-(4-chloro-2-methylphenyl)-N′-(cis-4-{[6-(dimethylaminio)-2-methylpyrimidin-4-yl]amino}cyclohexyl)urea] was run?
A: 3 (Class 3: The value of percent of control at 10^−7 M was more than 60% or the value of IC50 was more than 200 nM.)

Q: Which class does the source give for `Cc1nc(N[C@H]2CC[C@@H](NC(=O)Cc3ccc(OCc4ccccc4)cc3)CC2)cc(N(C)C)n1` [compound 204] here?
A: 3 (Class 3: The value of percent of control at 10^−7 M was more than 60% or the value of IC50 was more than 200 nM.)

Q: For `Cc1nc(N[C@H]2CC[C@@H](NC(=O)COc3ccccc3)CC2)cc(N(C)C)n1` [compound 234], which class is on record?
A: 3 (Class 3: The value of percent of control at 10^−7 M was more than 60% or the value of IC50 was more than 200 nM.)

Q: How did the class turn out when `COc1ccc(NC(=S)N[C@H]2CC[C@@H](Nc3cc(N(C)C)nc(C)n3)CC2)c(OC)c1` [compound 444] was run?
A: 3 (Class 3: The value of percent of control at 10^−7 M was more than 60% or the value of IC50 was more than 200 nM.)

Q: Which class does the source give for `Cc1nc(N[C@H]2CC[C@@H](NC(=O)c3ccno3)CC2)cc(N(C)C)n1` [compound 223] here?
A: 3 (Class 3: The value of percent of control at 10^−7 M was more than 60% or the value of IC50 was more than 200 nM.)

Q: `Cc1nc(N[C@H]2CC[C@@H](NC(=O)Nc3c(F)cc(Br)cc3Br)CC2)cc(N(C)C)n1` [compound 431] was tested. Which class did it give?
A: 3 (Class 3: The value of percent of control at 10^−7 M was more than 60% or the value of IC50 was more than 200 nM.)

Q: For `Cc1nc(N[C@H]2CC[C@@H](NS(=O)(=O)c3cccc4ccccc34)CC2)cc(N(C)C)n1` [compound 505], which class is on record?
A: 3 (Class 3: The value of percent of control at 10^−7 M was more than 60% or the value of IC50 was more than 200 nM.)

Q: For `Cc1nc(N[C@H]2CC[C@@H](NC(=O)c3ccc4c(c3)C(=O)c3ccccc3-4)CC2)cc(N(C)C)n1` [compound 324], which class is on record?
A: 3 (Class 3: The value of percent of control at 10^−7 M was more than 60% or the value of IC50 was more than 200 nM.)

Q: How did the class turn out when `Cc1cccc(NC(=O)c2ccccc2C(=O)N[C@H]2CC[C@@H](Nc3cc(N(C)C)nc(C)n3)CC2)c1` [compound 319] was run?
A: 3 (Class 3: The value of percent of control at 10^−7 M was more than 60% or the value of IC50 was more than 200 nM.)

Q: Which class does the source give for `Cc1nc(N[C@H]2CC[C@@H](NC(=O)c3cc(C)n(Cc4cccs4)c3C)CC2)cc(N(C)C)n1` [compound 283] here?
A: 3 (Class 3: The value of percent of control at 10^−7 M was more than 60% or the value of IC50 was more than 200 nM.)
